Laboratory results published in PubChem BioAssay AID1436 (PCMD, 2008).
Inconclusive results are not listed. The source made the active and inactive calls. No rule for the calls is given here.

Target: DNA repair protein RAD51 homolog 1 (Homo sapiens) (UniProt Q06609)
Test: RAD51-DNA association blockers – biochemical, fluorescence, dose response (AID 1436)
Conditions: RAD51 DNA binding

Sequence of DNA repair protein RAD51 homolog 1 (Homo sapiens) (Q06609 whole entry, looked up): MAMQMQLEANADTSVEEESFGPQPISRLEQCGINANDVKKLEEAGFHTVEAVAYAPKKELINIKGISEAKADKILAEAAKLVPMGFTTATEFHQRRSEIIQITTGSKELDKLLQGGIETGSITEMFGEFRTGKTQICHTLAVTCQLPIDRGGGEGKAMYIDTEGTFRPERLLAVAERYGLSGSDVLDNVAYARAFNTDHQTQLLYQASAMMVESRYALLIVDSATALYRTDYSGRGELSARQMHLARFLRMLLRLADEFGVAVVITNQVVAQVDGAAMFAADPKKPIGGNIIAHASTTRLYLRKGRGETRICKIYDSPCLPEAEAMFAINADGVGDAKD

Compound | IC50
COc1cccc2c1C(=O)c1c(O)c3c(c(O)c1C2=O)C[C@@](O)(C(=O)CO)C[C@@H]3O[C@H]1C[C@H](N)[C@@H](O)[C@H](C)O1 | > 85 µM (inactive)
COC(=O)c1ccc(=O)c2nc3/c(=C/O)c(O)cc(=O)c3[nH]c12 | > 42.5 µM (inactive)
